# Key:
# [1] = Phase 1 single ascending IV bolus dose study: plasma and urine pharmacokinetics; conditions: for t1/2, apparent terminal plasma elimination half-life: healthy participants, n = 4, arithmetic mean
# Text: The study (ClinicalTrials.gov Identifier: NCT03698305) was a randomized, double-blind, placebo-controlled, sequential ascending IV bolus dose group study conducted at a single center (Covance Clinical Research Unit, Inc.) in the United States.
# The study population, 30 participants in all, was comprised of 5 cohorts consisting of 6 healthy volunteers (3 females and 3 males) per cohort. […] The study consisted of a screening period, an investigational period, and a follow-up period (FIG. 1). Following successful screening, participants were admitted to the clinic on study day −1.
# After at least 5 of 6 patients in a cohort had completed the study procedure, a Dose-Escalation Committee reviewed all PK and safety data, and decided whether to proceed with dose escalation, stop dose escalation, repeat a dose level, or investigate a lower dose level intermediate between the current and prior doses.
# Blood and urine samples were collected over a 24-hour period. Participants were discharged on day 2, returned to the clinic for a follow-up visit on day 7, and the study was completed with a follow-up phone call on day 14. To prevent accidental unblinding should the urine be discolored, catheter and tubing collection bags were covered, and participants were prevented from observing these or the collection vials when changed.
# Urine interval sampling was between −1 hour and time of dosing, and between each subsequent consecutive urine sample collection time point.
# The safety population comprised all participants who received a single dose of study drug. The PK population comprised safety population participants for which data were available for derivation of ≥1 PK parameter. Pharmacokinetic parameters were calculated by noncompartmental analysis using Phoenix WinNonlin version 8.1 and were summarized by treatment group.
# [2] = NIR versus white light; cited from earlier work
smiles,measurement,setting,value
COC1=C(/C=C/C2=[N+](CCC(=O)NCCCO[C@H]3[C@H]4O[C@H]5[C@H](O)[C@@H](O)[C@@H](O[C@H]6[C@H](O)[C@@H](O)[C@@H](O[C@H]7[C@H](O)[C@@H](O)[C@@H](O[C@H]8[C@H](O)[C@@H](O)[C@@H](O[C@H]9[C@H](O)[C@@H](O)[C@@H](O[C@H]%10[C@H](O)[C@@H](O)[C@@H](O[C@@H]([C@@H]3O)[C@@H](CO)O4)O[C@@H]%10CO)O[C@@H]9CO)O[C@@H]8CO)O[C@@H]7CO)O[C@@H]6CO)O[C@@H]5CO)c3ccc4ccccc4c3C2(C)C)CCC/C1=C\C=C1\N(CCC(=O)NCCCO[C@H]2[C@H]3O[C@H]4[C@H](O)[C@@H](O)[C@@H](O[C@H]5[C@H](O)[C@@H](O)[C@@H](O[C@H]6[C@H](O)[C@@H](O)[C@@H](O[C@H]7[C@H](O)[C@@H](O)[C@@H](O[C@H]8[C@H](O)[C@@H](O)[C@@H](O[C@H]9[C@H](O)[C@@H](O)[C@@H](O[C@@H]([C@@H]2O)[C@@H](CO)O3)O[C@@H]9CO)O[C@@H]8CO)O[C@@H]7CO)O[C@@H]6CO)O[C@@H]5CO)O[C@@H]4CO)c2ccc3ccccc3c2C1(C)C [Pudexacianinium],"Mean terminal half-life, range across doses",[1]; 0.1 mg to 24 mg single IV bolus,2.1 to 3.6 h
same,"t1/2, apparent terminal plasma elimination half-life",[1]; single IV bolus 0.1 mg,2.24 h
same,"t1/2, apparent terminal plasma elimination half-life",[1]; single IV bolus 0.5 mg,2.23 h
same,"t1/2, apparent terminal plasma elimination half-life",[1]; single IV bolus 2 mg,2.10 h
same,"t1/2, apparent terminal plasma elimination half-life",[1]; single IV bolus 8 mg,3.58 h
same,"t1/2, apparent terminal plasma elimination half-life",[1]; single IV bolus 24 mg,3.41 h
CN(C)c1ccc2nc3ccc(=[N+](C)C)cc-3sc2c1 [methylene blue],NIRF ureter visualization in first-in-human study,[2],did not provide sufficient optical properties to offer any visualization advantage with NIR over white light

# Source: patent US20240342316A1, “A PHARMACEUTICAL COMPOSITION FOR IMAGING” (ASTELLAS PHARMA INC., priority 2021, published 2024)
